# Measurements: patent publication US20250296959A1, “B7-H3 TARGETING PEPTIDES AND CONSTRUCTS THEREOF” (Mariana Oncology Inc., priority 2024, published 2025)
# pKd: −log10 of the molar value. Starred links: 1 amine or outer side, 2 acyl side, 3 side chain; linkers in the order of their positions; H or OH if unused. Positions of bridges follow the written chain, without caps; N, C: chain ends. Non-standard residues stand in square brackets, D forms with d. Residues, ends and D or L forms follow the SMILES beside them. Groups on a side chain read outwards from the residue. *: point of attachment. X2 = O=C(O)CN1CCN(CC(=O)O)CCN(CC(=O)NCCOCCOCCOCCOCC(=O)*)CCN(CC(=O)O)CC1; Phe(3-CH2NH2) = O=C([C@H](Cc1cccc(CN[*:3])c1)N[*:1])[*:2]; DOTA = O=C(O)CN1CCN(CC(=O)O)CCN(CC(=O)*)CCN(CC(=O)O)CC1; Trp(5-F) = N[C@@H](Cc1c[nH]c2ccc(F)cc12)C(=O)O; Pro(cis-4-F) = O=C(O)[C@@H]1C[C@H](F)CN1; γGlu = O=C(O)[C@H](CCC(=O)[*:2])N[*:1]; 1Nal = N[C@@H](Cc1cccc2ccccc12)C(=O)O; Ala(4-THP) = N[C@@H](CC1CCOCC1)C(=O)O; cisHyp = O=C(O)[C@@H]1C[C@H](O)CN1; 4Pal = N[C@@H](Cc1ccncc1)C(=O)O; Tle = CC(C)(C)[C@H](N)C(=O)O; hLeu = CC(C)CC[C@H](N)C(=O)O
# Target: T1, human 4lg B7-H3 (Homo sapiens, UniProt Q5ZPR3)
# T1 sequence (Q5ZPR3 29-534): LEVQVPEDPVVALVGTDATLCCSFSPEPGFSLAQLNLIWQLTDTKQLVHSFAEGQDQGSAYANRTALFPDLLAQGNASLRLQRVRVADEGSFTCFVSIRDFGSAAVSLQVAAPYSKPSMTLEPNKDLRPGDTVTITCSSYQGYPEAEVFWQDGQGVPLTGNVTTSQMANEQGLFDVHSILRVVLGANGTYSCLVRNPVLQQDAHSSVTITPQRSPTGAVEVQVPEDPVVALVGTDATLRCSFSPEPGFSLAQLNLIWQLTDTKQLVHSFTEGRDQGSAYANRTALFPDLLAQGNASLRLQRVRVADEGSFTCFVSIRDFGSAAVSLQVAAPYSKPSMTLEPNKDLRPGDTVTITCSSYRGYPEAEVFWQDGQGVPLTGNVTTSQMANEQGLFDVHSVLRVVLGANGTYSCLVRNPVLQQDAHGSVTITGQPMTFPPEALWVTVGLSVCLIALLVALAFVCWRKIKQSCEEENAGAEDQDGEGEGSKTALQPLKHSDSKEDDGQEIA
# Experiment: Affinity determination by surface plasmon resonance (SPR) to 4Ig B7-H3
# Details: SPR KD—25° C., 4Ig B7-H3; 25° C. flow cell temperature
row,Structure (SMILES),pKd
1,"CC(=O)N[C@@H](CCC(C)C)C(=O)N[C@@H](Cc1ccc(O)cc1)C(=O)N[C@H]1CSSC[C@@H](C(=O)N[C@@H](Cc2cccc3ccccc23)C(=O)N[C@@H](Cc2ccccc2)C(=O)N2C[C@@H](O)C[C@H]2C(N)=O)NC(=O)[C@H](Cc2ccc(O)cc2)NC(=O)[C@H](C(C)C)NC(=O)[C@H](CC(=O)O)NC(=O)[C@H](Cc2ccncc2)NC(=O)[C@H](CCCCNC(=O)CN2CCN(CC(=O)O)CCN(CC(=O)O)CCN(CC(=O)O)CC2)NC(=O)CNC(=O)[C@H](C(C)(C)C)NC1=O [compound 250, Ac-hLeu-Y-C-Tbg-G-Lys(DOTA)-4PyA-D-V-Y-C-1Nal-F-(cisHyp)-CONH2] (Ac-[hLeu]YC[Tle]GK(DOTA)[4Pal]DVYC[1Nal]F[cisHyp]-NH2; disulfide 3-11)",7.00 to 8.00
2,"CC(=O)N[C@@H](CCC(C)C)C(=O)N[C@@H](Cc1ccc(O)cc1)C(=O)N[C@H]1CSSC[C@@H](C(=O)N[C@@H](Cc2cccc3ccccc23)C(=O)N[C@@H](Cc2ccccc2)C(=O)N2CCC[C@H]2C(N)=O)NC(=O)[C@H](Cc2ccc(O)cc2)NC(=O)[C@H](C(C)C)NC(=O)[C@H](CC(=O)O)NC(=O)[C@H](Cc2cccc(CNC(=O)CC[C@H](NC(=O)CN3CCN(CC(=O)O)CCN(CC(=O)O)CCN(CC(=O)O)CC3)C(=O)O)c2)NC(=O)[C@H](CCCCN)NC(=O)CNC(=O)[C@H](C(C)(C)C)NC1=O [compound 254, Ac-hLeu-Y-C-Tbg-G-K-MAF(gE-DOTA)-D-V-Y-C-1Nal-F-Pro-CONH2] (Ac-[hLeu]YC[Tle]GK[Phe(3-CH2NH2)]([γGlu-DOTA])DVYC[1Nal]FP-NH2; disulfide 3-11)",8.00 to 9.00
3,"CC(=O)N[C@@H](CCC(C)C)C(=O)N[C@@H](Cc1ccc(O)cc1)C(=O)N[C@H]1CSSC[C@@H](C(=O)N[C@@H](Cc2cccc3ccccc23)C(=O)N[C@@H](Cc2ccccc2)C(=O)N2CCC[C@H]2C(N)=O)NC(=O)[C@H](Cc2ccc(O)cc2)NC(=O)[C@H](C(C)C)NC(=O)[C@H](CC(=O)O)NC(=O)[C@H](Cc2cccc(CNC(=O)CC[C@H](NC(=O)CC[C@H](NC(=O)CN3CCN(CC(=O)O)CCN(CC(=O)O)CCN(CC(=O)O)CC3)C(=O)O)C(=O)O)c2)NC(=O)[C@H](CCCCN)NC(=O)CNC(=O)[C@H](C(C)(C)C)NC1=O [compound 255, Ac-hLeu-Y-C-Tbg-G-K-MAF(gE-gE-DOTA)-D-V-Y-C-1Nal-F-Pro-CONH2] (Ac-[hLeu]YC[Tle]GK[Phe(3-CH2NH2)]([γGlu-γGlu-DOTA])DVYC[1Nal]FP-NH2; disulfide 3-11)",8.00 to 9.00
4,"CC[C@H](C)[C@@H]1NC(=O)[C@@H](NC(=O)[C@H](Cc2ccc(O)cc2)NC(=O)[C@H](CCC(C)C)NC(C)=O)CSSC[C@@H](C(=O)N[C@@H](Cc2c[nH]c3ccc(F)cc23)C(=O)N[C@@H](Cc2ccccc2)C(=O)N2CCC[C@H]2C(N)=O)NC(=O)[C@H](Cc2ccc(O)cc2)NC(=O)[C@H](C(C)C)NC(=O)[C@H](CC(=O)O)NC(=O)[C@H](Cc2ccncc2)NC(=O)[C@H](CCCCNC(=O)CN2CCN(CC(=O)O)CCN(CC(=O)O)CCN(CC(=O)O)CC2)NC(=O)CNC1=O [compound 260, Ac-hLeu-Y-C-Ile-G-Lys(DOTA)-4PyA-D-V-Y-C-5FW-F-Pro-CONH2] (Ac-[hLeu]YCIGK(DOTA)[4Pal]DVYC[Trp(5-F)]FP-NH2; disulfide 3-11)",8.00 to 9.00
5,"CC[C@H](C)[C@@H]1NC(=O)[C@@H](NC(=O)[C@H](Cc2ccc(O)cc2)NC(=O)[C@H](CCC(C)C)NC(C)=O)CSSC[C@@H](C(=O)N[C@@H](Cc2c[nH]c3ccc(F)cc23)C(=O)N[C@@H](Cc2ccccc2)C(=O)N2CCC[C@H]2C(N)=O)NC(=O)[C@H](Cc2ccc(O)cc2)NC(=O)[C@H](C(C)C)NC(=O)[C@H](CC(=O)O)NC(=O)[C@H](CC2CCOCC2)NC(=O)[C@H](CCCCNC(=O)CN2CCN(CC(=O)O)CCN(CC(=O)O)CCN(CC(=O)O)CC2)NC(=O)CNC1=O [compound 261, Ac-hLeu-Y-C-Ile-G-Lys(DOTA)-ThpA-D-V-Y-C-5FW-F-Pro-CONH2] (Ac-[hLeu]YCIGK(DOTA)[Ala(4-THP)]DVYC[Trp(5-F)]FP-NH2; disulfide 3-11)",8.00 to 9.00
6,"CC(=O)N[C@@H](CCC(C)C)C(=O)N[C@@H](Cc1ccc(O)cc1)C(=O)N[C@H]1CSSC[C@@H](C(=O)N[C@@H](Cc2c[nH]c3ccc(F)cc23)C(=O)N[C@@H](Cc2ccccc2)C(=O)N2CCC[C@H]2C(=O)O)NC(=O)[C@H](Cc2ccc(O)cc2)NC(=O)[C@H](C(C)C)NC(=O)[C@H](CC(=O)O)NC(=O)[C@H](Cc2cccc(CNC(=O)CN3CCN(CC(=O)O)CCN(CC(=O)O)CCN(CC(=O)O)CC3)c2)NC(=O)[C@H](CCCCN)NC(=O)CNC(=O)[C@H](C(C)C)NC1=O [compound 262, Ac-hLeu-Y-C-V-G-K-MAF(DOTA)-D-V-Y-C-5FW-F-Pro-COOH] (Ac-[hLeu]YCVGK[Phe(3-CH2NH2)](DOTA)DVYC[Trp(5-F)]FP-OH; disulfide 3-11)",7.00 to 8.00

# Next, values leading:
row,pKd,Structure (SMILES)
1,8.00 to 9.00,"CC(=O)N[C@@H](CCC(C)C)C(=O)N[C@@H](Cc1ccc(O)cc1)C(=O)N[C@H]1CSSC[C@@H](C(=O)N[C@@H](Cc2c[nH]c3ccc(F)cc23)C(=O)N[C@@H](Cc2ccccc2)C(=O)N2CCC[C@H]2C(=O)N[C@H](CCCCNC(=O)CN2CCN(CC(=O)O)CCN(CC(=O)O)CCN(CC(=O)O)CC2)C(N)=O)NC(=O)[C@H](Cc2ccc(O)cc2)NC(=O)[C@H](C(C)C)NC(=O)[C@H](CC(=O)O)NC(=O)[C@H](Cc2ccc(O)cc2)NC(=O)[C@H](CCCCN)NC(=O)CNC(=O)[C@H](C(C)(C)C)NC1=O [compound 248, Ac-hLeu-Y-C-Tbg-G-K-Y-D-V-Y-C-5FW-F-Pro-dLys(DOTA)-CONH2] (Ac-[hLeu]YC[Tle]GKYDVYC[Trp(5-F)]FP[dK](DOTA)-NH2; disulfide 3-11)"
2,8.00 to 9.00,"COc1ccc(C[C@@H]2NC(=O)[C@H](C(C)C)NC(=O)[C@H](CC(=O)O)NC(=O)[C@H](Cc3ccncc3)NC(=O)[C@H](CCCCNC(=O)CN3CCN(CC(=O)O)CCN(CC(=O)O)CCN(CC(=O)O)CC3)NC(=O)CNC(=O)[C@H](C(C)C)NC(=O)[C@@H](NC(=O)[C@H](Cc3ccc(O)cc3)NC(=O)[C@H](CCC(C)C)NC(C)=O)CSSC[C@@H](C(=O)N[C@@H](Cc3c[nH]c4ccc(F)cc34)C(=O)N[C@@H](Cc3ccccc3)C(=O)N3CCC[C@H]3C(N)=O)NC2=O)cc1 [compound 249, Ac-hLeu-Y-C-V-G-Lys(DOTA)-4PyA-D-V-OMeTyr-C-5FW-F-Pro-CONH2] (Ac-[hLeu]YCVGK(DOTA)[4Pal]DVY(Me)C[Trp(5-F)]FP-NH2; disulfide 3-11)"
3,8.00 to 9.00,"CC[C@H](C)[C@@H]1NC(=O)[C@@H](NC(=O)[C@H](Cc2ccc(O)cc2)NC(=O)[C@H](CCC(C)C)NC(C)=O)CSSC[C@@H](C(=O)N[C@@H](Cc2c[nH]c3ccc(F)cc23)C(=O)N[C@@H](Cc2ccccc2)C(=O)N2C[C@@H](O)C[C@H]2C(N)=O)NC(=O)[C@H](Cc2ccc(O)cc2)NC(=O)[C@H](C(C)C)NC(=O)[C@H](CC(=O)O)NC(=O)[C@H](Cc2ccncc2)NC(=O)[C@H](CCCCNC(=O)CN2CCN(CC(=O)O)CCN(CC(=O)O)CCN(CC(=O)O)CC2)NC(=O)CNC1=O [compound 251, Ac-hLeu-Y-C-Ile-G-Lys(DOTA)-4PyA-D-V-Y-C-5FW-F-(cisHyp)-CONH2] (Ac-[hLeu]YCIGK(DOTA)[4Pal]DVYC[Trp(5-F)]F[cisHyp]-NH2; disulfide 3-11)"
4,8.00 to 9.00,"CC(=O)N[C@@H](CCC(C)C)C(=O)N[C@@H](Cc1ccc(O)cc1)C(=O)N[C@H]1CSSC[C@@H](C(=O)N[C@@H](Cc2cccc3ccccc23)C(=O)N[C@@H](Cc2ccccc2)C(=O)N2CCC[C@H]2C(N)=O)NC(=O)[C@H](Cc2ccc(O)cc2)NC(=O)[C@H](C(C)C)NC(=O)[C@H](CC(=O)O)NC(=O)[C@H](Cc2cccc(CNC(=O)COCCOCCOCCOCCNC(=O)CN3CCN(CC(=O)O)CCN(CC(=O)O)CCN(CC(=O)O)CC3)c2)NC(=O)[C@H](CCCCN)NC(=O)CNC(=O)[C@H](C(C)(C)C)NC1=O [compound 257, Ac-hLeu-Y-C-Tbg-G-K-MAF(PEG4-DOTA)-D-V-Y-C-1Nal-F-Pro-CONH2] (Ac-[hLeu]YC[Tle]GK[Phe(3-CH2NH2)](X2)DVYC[1Nal]FP-NH2; disulfide 3-11)"
5,8.00 to 9.00,"CC(=O)N[C@@H](CCC(C)C)C(=O)N[C@@H](Cc1ccc(O)cc1)C(=O)N[C@H]1CSSC[C@@H](C(=O)N[C@@H](Cc2cccc3ccccc23)C(=O)N[C@@H](Cc2ccccc2)C(=O)N2CCC[C@H]2C(N)=O)NC(=O)[C@H](Cc2ccc(O)cc2)NC(=O)[C@H](C(C)C)NC(=O)[C@H](CC(=O)O)NC(=O)[C@H](Cc2cccc(CNC(=O)CC[C@H](NC(=O)CC[C@H](NC(=O)CC[C@H](NC(=O)CN3CCN(CC(=O)O)CCN(CC(=O)O)CCN(CC(=O)O)CC3)C(=O)O)C(=O)O)C(=O)O)c2)NC(=O)[C@H](CCCCN)NC(=O)CNC(=O)[C@H](C(C)(C)C)NC1=O [compound 258, Ac-hLeu-Y-C-Tbg-G-K-MAF(gE-gE-gE-DOTA)-D-V-Y-C-1Nal-F-Pro-CONH2] (Ac-[hLeu]YC[Tle]GK[Phe(3-CH2NH2)]([γGlu-γGlu-γGlu-DOTA])DVYC[1Nal]FP-NH2; disulfide 3-11)"
6,7.00 to 8.00,"CC(=O)N[C@@H](CCC(C)C)C(=O)N[C@@H](Cc1ccc(O)cc1)C(=O)N[C@H]1CSSC[C@@H](C(=O)N[C@@H](Cc2cccc3ccccc23)C(=O)N[C@@H](Cc2ccccc2)C(=O)N2C[C@@H](F)C[C@H]2C(=O)O)NC(=O)[C@H](Cc2ccc(O)cc2)NC(=O)[C@H](C(C)C)NC(=O)[C@H](CC(=O)O)NC(=O)[C@H](Cc2ccncc2)NC(=O)[C@H](CCCCNC(=O)CN2CCN(CC(=O)O)CCN(CC(=O)O)CCN(CC(=O)O)CC2)NC(=O)CNC(=O)[C@H](C(C)(C)C)NC1=O [compound 263, Ac-hLeu-Y-C-Tbg-G-Lys(DOTA)-4PyA-D-V-Y-C-1Nal-F-cis4FPro-CONH2] (Ac-[hLeu]YC[Tle]GK(DOTA)[4Pal]DVYC[1Nal]F[Pro(cis-4-F)]-OH; disulfide 3-11)"
